What was measured:
AZD1775 = compound: C=CCn1c(=O)c2cnc(Nc3ccc(N4CCN(C)CC4)cc3)nc2n1-c1cccc(C(C)(C)O)n1 [AZD1775]; details: max 3 µM
How it was run: (§1)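 In 1536-well plates, cancer cell lines in 7.5 μl DMEM/F12 or RPMI with 10% FBS spent 24 hours at 37°C and 5% CO2 and were then dosed for 72 hours with final DMSO typically 0.2%. Viability was read by CellTiter-Glo 2.0 luminescence and scaled between blank-well and DMSO-well means. The single-agent IC50 was fitted from dose responses using a logistic curve in a non-linear mixed effects model, and that logistic curve had two parameters.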

Lapatinib = compound: CS(=O)(=O)CCNCc1ccc(-c2ccc3ncnc(Nc4ccc(OCc5cccc(F)c5)c(Cl)c4)c3c2)o1 [Lapatinib]; details: max 10 µM
How it was run: as §1

Capivasertib = compound: C1CN(CCC1(C(=O)N[C@@H](CCO)C2=CC=C(C=C2)Cl)N)C3=NC=NC4=C3C=CN4 [Capivasertib]; details: max 10 µM
How it was run: as §1

Alisertib = compound: COc1cc(Nc2ncc3c(n2)-c2ccc(Cl)cc2C(c2c(F)cccc2OC)=NC3)ccc1C(=O)O [Alisertib]; details: max 10 µM
How it was run: as §1

AZD6738 = compound: C[C@@H]1COCCN1C2=NC(=NC(=C2)C3(CC3)[S@](=N)(=O)C)C4=C5C=CNC5=NC=C4 [AZD6738]; details: max 10 µM
How it was run: as §1

Palbociclib = compound: CC(=O)c1c(C)c2cnc(Nc3ccc(N4CCNCC4)cn3)nc2n(C2CCCC2)c1=O [Palbociclib]; details: max 10 µM
How it was run: as §1

SN-38 = compound: CCc1c2c(nc3ccc(O)cc13)-c1cc3c(c(=O)n1C2)COC(=O)[C@]3(O)CC [SN-38]; details: max 0.3 µM
How it was run: as §1

AZD2811 = compound: CCN(CCO)CCCOc1ccc2c(Nc3cc(CC(=O)Nc4cccc(F)c4)[nH]n3)ncnc2c1 [AZD2811]; details: max 1 µM
How it was run: as §1

Dasatinib = compound: CC1=C(C(=CC=C1)Cl)NC(=O)C2=CN=C(S2)NC3=CC(=NC(=N3)C)N4CCN(CC4)CCO [Dasatinib]; details: max 2 µM
How it was run: as §1

AZD5153 = compound: COc1nnc2ccc(N3CCC(c4ccc(OCCN5CCN(C)C(=O)[C@H]5C)cc4)CC3)nn12 [AZD5153]; details: max 1 µM
How it was run: as §1

Crizotinib = compound: C[C@@H](Oc1cc(-c2cnn(C3CCNCC3)c2)cnc1N)c1c(Cl)ccc(F)c1Cl [Crizotinib]; details: max 10 µM
How it was run: as §1

AZD0156 = compound: CN(C)CCCOc1ccc(-c2ccc3ncc4c(c3c2)n(C2CCOCC2)c(=O)n4C)cn1 [AZD0156]; details: max 3 µM
How it was run: as §1

SG3199 = compound: CC1=CN2[C@@H](C1)C=NC3=CC(=C(C=C3C2=O)OC)OCCCCCOC4=C(C=C5C(=C4)N=C[C@@H]6CC(=CN6C5=O)C)OC [SG3199]; details: max 0.001 µM
How it was run: as §1

Gefitinib = compound: COc1cc2ncnc(Nc3ccc(F)c(Cl)c3)c2cc1OCCCN1CCOCC1 [Gefitinib]; details: max 10 µM
How it was run: as §1

Taselisib = compound: Cc1nc(-c2cn3c(n2)-c2ccc(-c4cnn(C(C)(C)C(N)=O)c4)cc2OCC3)n(C(C)C)n1 [Taselisib]; details: max 10 µM
How it was run: as §1

Selumetinib = compound: Cn1cnc2c(F)c(Nc3ccc(Br)cc3Cl)c(C(=O)NOCCO)cc21 [Selumetinib]; details: max 10 µM
How it was run: as §1

AZD8186 = compound: C[C@@H](Nc1cc(F)cc(F)c1)c1cc(C(=O)N(C)C)cc2c(=O)cc(N3CCOCC3)oc12 [AZD8186]; details: max 3 µM
How it was run: as §1

Prexasertib = compound: COc1cccc(OCCCN)c1-c1cc(Nc2cnc(C#N)cn2)n[nH]1 [Prexasertib]; details: max 1 µM
How it was run: as §1

Savolitinib = compound: C[C@@H](c1ccc2nccn2c1)n1nnc2ncc(-c3cnn(C)c3)nc21 [Savolitinib]; details: max 1 µM
How it was run: as §1

AZD1390 = compound: CC(C)n1c(=O)n(C)c2cnc3cc(F)c(-c4ccc(OCCCN5CCCCC5)nc4)cc3c21 [AZD1390]; details: max 0.3 µM
How it was run: as §1

AZD7648 = compound: Cc1cc2ncnn2cc1Nc1ncc2c(n1)n(C1CCOCC1)c(=O)n2C [AZD7648]; details: max 10 µM
How it was run: as §1

AZD5991 = compound: Cc1c2c(nn1C)CSCc1cc(n(C)n1)CSc1cc(c3ccccc3c1)OCCCc1c(C(=O)O)n(C)c3c-2c(Cl)ccc13 [AZD5991]; details: max 1 µM
How it was run: as §1

Olaparib = compound: O=C(c1cc(Cc2n[nH]c(=O)c3ccccc23)ccc1F)N1CCN(C(=O)C2CC2)CC1 [Olaparib]; details: max 10 µM
How it was run: as §1

Venetoclax = compound: CC1(C)CCC(CN2CCN(c3ccc(C(=O)NS(=O)(=O)c4ccc(NCC5CCOCC5)c([N+](=O)[O-])c4)c(Oc4cnc5[nH]ccc5c4)c3)CC2)=C(c2ccc(Cl)cc2)C1 [Venetoclax]; details: max 1 µM
How it was run: as §1

Doxorubicin = compound: COc1cccc2c1C(=O)c1c(O)c3c(c(O)c1C2=O)C[C@@](O)(C(=O)CO)C[C@@H]3O[C@H]1C[C@H](N)[C@H](O)[C@H](C)O1 [Doxorubicin]; details: max 1 µM
How it was run: as §1

Trametinib = compound: CC(=O)Nc1cccc(-n2c(=O)n(C3CC3)c(=O)c3c(Nc4ccc(I)cc4F)n(C)c(=O)c(C)c32)c1 [Trametinib]; details: max 1 µM
How it was run: as §1

AZD4320 = compound: CN(CC[C@H](CSC1=CC=CC=C1)NC2=C(C=C(C=C2)S(=O)(=O)NC(=O)C3=CC=C(C=C3)N4CCC(CC4)[C@H](C5=CC=CC=C5C6=CC=C(C=C6)Cl)O)S(=O)(=O)C(F)(F)F)CCO [AZD4320]; details: max 1 µM
How it was run: as §1

Cell Line | IC50, cell viability 72 h (AZD1775) [nM] | IC50, cell viability 72 h (Lapatinib) [nM] | IC50, cell viability 72 h (Capivasertib) [nM] | IC50, cell viability 72 h (Alisertib) [nM] | IC50, cell viability 72 h (AZD6738) [nM] | IC50, cell viability 72 h (Palbociclib) [nM] | IC50, cell viability 72 h (SN-38) [nM] | IC50, cell viability 72 h (AZD2811) [nM] | IC50, cell viability 72 h (Dasatinib) [nM] | IC50, cell viability 72 h (AZD5153) [nM] | IC50, cell viability 72 h (Crizotinib) [nM] | IC50, cell viability 72 h (AZD0156) [nM] | IC50, cell viability 72 h (SG3199) [nM] | IC50, cell viability 72 h (Gefitinib) [nM] | IC50, cell viability 72 h (Taselisib) [nM] | IC50, cell viability 72 h (Selumetinib) [nM] | IC50, cell viability 72 h (AZD8186) [nM] | IC50, cell viability 72 h (Prexasertib) [nM] | IC50, cell viability 72 h (Savolitinib) [nM] | IC50, cell viability 72 h (AZD1390) [nM] | IC50, cell viability 72 h (AZD7648) [nM] | IC50, cell viability 72 h (AZD5991) [nM] | IC50, cell viability 72 h (Olaparib) [nM] | IC50, cell viability 72 h (Venetoclax) [nM] | IC50, cell viability 72 h (Doxorubicin) [nM] | IC50, cell viability 72 h (Trametinib) [nM] | IC50, cell viability 72 h (AZD4320) [nM]
639-V (Bladder Carcinoma) | 2210 | > 10000 | > 10000 | 2980 | > 10000 | > 10000 | 3.66 | > 1000 | 1380 | 257 | > 10000 | > 3000 | > 1 | > 10000 | 2460 | > 10000 | > 3000 | 948 | > 1000 | > 300 | > 10000 | > 1000 | > 10000 | > 1000 | 574 | > 1000 | > 1000
CAL-51 (Breast Carcinoma) | 583 | > 10000 | 4410 | 6960 | 1510 | > 10000 | 53 | > 1000 | > 2000 | 469 | > 10000 | > 3000 | > 1 | > 10000 | 1300 | > 10000 | > 3000 | 25.3 | > 1000 | > 300 | > 10000 | > 1000 | > 10000 | > 1000 | 415 | > 1000 | > 1000
HCC-15 (Squamous Cell Lung Carcinoma) | 1350 | > 10000 | > 10000 | 181 | > 10000 | > 10000 | > 300 | 657 | > 2000 | > 1000 | > 10000 | > 3000 | > 1 | > 10000 | > 10000 | 4440 | > 3000 | > 1000 | > 1000 | > 300 | > 10000 | > 1000 | > 10000 | > 1000 | > 1000 | 164 | 216
KARPAS-231 (B-Cell Non-Hodgkin's Lymphoma) | 123 | > 10000 | > 10000 | 1020 | 6030 | > 10000 | 1.68 | 264 | > 2000 | > 1000 | > 10000 | > 3000 | > 1 | > 10000 | > 10000 | > 10000 | > 3000 | 12.5 | > 1000 | > 300 | > 10000 | 31.4 | > 10000 | 7 | 899 | > 1000 | 21.2
KYSE-410 (Esophageal Squamous Cell Carcinoma) | 2210 | 8740 | > 10000 | > 10000 | > 10000 | > 10000 | > 300 | > 1000 | 1900 | > 1000 | > 10000 | > 3000 | > 1 | > 10000 | 2710 | > 10000 | > 3000 | 952 | > 1000 | > 300 | > 10000 | > 1000 | > 10000 | > 1000 | > 1000 | > 1000 | > 1000
LB771-HNC (Head and Neck Carcinoma) | 742 | > 10000 | > 10000 | 6250 | > 10000 | > 10000 | > 300 | > 1000 | > 2000 | > 1000 | > 10000 | > 3000 | > 1 | > 10000 | 2670 | > 10000 | > 3000 | 367 | > 1000 | > 300 | > 10000 | > 1000 | > 10000 | > 1000 | > 1000 | > 1000 | > 1000
MHH-PREB-1 (B-Cell Non-Hodgkin's Lymphoma) | 935 | > 10000 | > 10000 | > 10000 | 2080 | > 10000 | 58.4 | > 1000 | > 2000 | 756 | 8080 | > 3000 | > 1 | > 10000 | > 10000 | > 10000 | > 3000 | 8.91 | > 1000 | > 300 | > 10000 | > 1000 | > 10000 | > 1000 | 317 | > 1000 | > 1000
OVCAR-8 (Ovarian Carcinoma) | 1370 | > 10000 | > 10000 | 7630 | 6140 | > 10000 | 18.7 | > 1000 | 1540 | 198 | > 10000 | > 3000 | > 1 | > 10000 | > 10000 | > 10000 | > 3000 | 13.4 | > 1000 | > 300 | > 10000 | > 1000 | > 10000 | > 1000 | 257 | > 1000 | > 1000
SW626 (Colorectal Carcinoma) | 1490 | > 10000 | > 10000 | > 10000 | > 10000 | > 10000 | > 300 | > 1000 | > 2000 | 150 | > 10000 | > 3000 | > 1 | > 10000 | > 10000 | 2810 | > 3000 | 127 | > 1000 | > 300 | > 10000 | > 1000 | > 10000 | > 1000 | > 1000 | 111 | > 1000
TE-4 (Esophageal Squamous Cell Carcinoma) | 1020 | 264 | 2910 | > 10000 | > 10000 | > 10000 | > 300 | > 1000 | > 2000 | > 1000 | > 10000 | > 3000 | > 1 | 990 | 381 | > 10000 | > 3000 | 334 | > 1000 | > 300 | > 10000 | > 1000 | > 10000 | > 1000 | > 1000 | 125 | > 1000

From the supplement of paper PMC11061612
